Data from patent US10022389B2, “Prophylactic or therapeutic drug for constipation” (TAISHO PHARMACEUTICAL CO., LTD., priority 2013, dated 2018).

Tests used:
Type in all cases: in vivo, SD/IGS rats
[1] = tested on: rats with constipation induced by low-fiber diet; test: Test 1: ameliorating effect on constipation models fed on low-fiber diet; conditions: low-fiber diet constipation model rats, oral in 0.5% MC, dosed twice (0 and 8 h)
Experimental: Test 1: Ameliorating Effect on Constipation Models Fed on Low-Fiber Diet
SD/IGS rats (6-wk old; CHARLES RIVER LABORATORIES JAPAN, INC.) in groups, each consisting of two heads per cage, were fed on a diet with a decreased dietary fiber content of 5% for a week in order to induce constipation. The normal group was fed on a standard diet with 15% dietary fiber (MF diet; ORIENTAL YEAST CO., LTD.) On the day before the test, each rat was measured for body weight and thereafter transferred into an individual cage. Grouping was performed on the basis of the body weights measured on the day before the test. The experimental groups of rats with induced constipation were orally administered compound (I) in a volume of 5 mL/kg body weight as dissolved in 0.5% (w/v) methylcellulose (MC), whereas the control vehicle group was orally administered 0.5% MC only. […] Immediately after the first administration, a stool recovery tray was placed under each cage and starting 2 hours after the administration, stools were recovered every two hours until 24 hours after the administration; the appearance of the recovered stools was observed and their weight was measured. To determine their moisture content, the stools were measured for their wet weight, dried for at least 8 hours at 100° C., measured for dry weight, and its proportion (%) to the wet weight was calculated. […]

[2] = tested on: rats with loperamide-induced constipation; test: Test 2: ameliorating effect on loperamide-induced constipation; conditions: loperamide (5 mg/kg p.o.) constipation model rats, oral in 0.5% MC
Experimental: Test 2: Ameriolating Effect on Loperamide-Induced Constipation
The effects on constipation as induced by loperamide which suppresses the propulsion of the digestive tract's contents and the secretion of intestinal juice were investigated.
SD/IGS rats (6-wk old; CHARLES RIVER LABORATORIES JAPAN, INC.) in groups, each consisting of one head per cage, were kept in a day-and-night reversal room for 11 days. The rats were fasted for about 16 hours and orally administered 0.5% MC suspended loperamide at a dose of 5 mg/5 mL/kg body weight to prepare constipation models. The normal group was orally administered on 0.5% MC only. […] Immediately after the administration of compound (I), 5 g of a standard diet (MF diet; ORIENTAL YEAST CO., LTD.) was applied and thereafter, a stool recovery tray was placed under each cage and starting 2 hours after the administration, stools were recovered every two hours until after 12 hours; the appearance of the recovered stools was observed and their weight was measured. To determine their moisture content, the stools were measured for their wet weight, dried for at least 8 hours at 100° C., measured for dry weight, and its proportion (%) to the wet weight was calculated. […]

[3] = Test 3: percentage of compound (I) remaining unaltered in rat's digestive tract; conditions: 1 mg/kg oral; for Remaining unaltered, cecum/large intestine (including the contents), relative to dose / Remaining unaltered, small intestine's contents, relative to dose / Remaining unaltered, small intestine, relative to dose / Remaining unaltered, total, relative to dose: average of 4 cases ± S.D.
Experimental: Test 3: Percentage of Compound (I) Remaining Unaltered in Rat's Digestive Tract
Seven-week old SD/IGS rats (CHARLES RIVER LABORATORIES JAPAN, INC.; male; fasted) were orally administered compound (I) (1 mg/kg) formulated with an aqueous solution of 0.5% CMC-Na (carboxymethylcellulose sodium salt). One, four and seven hours after the drug administration, the rats were euthanized under anesthetization with ether and their small intestine, cecum, and large intestine were removed. The contents of the small intestine were recovered by infusing the small intestine with 20 mL of physiological saline. After washing the tissue's surface with physiological saline, the tissues and the recovered contents were measured for their weight and homogenized under cooling with ice in the presence of added 4 volumes of purified water. The homogenate was deproteinated in the presence of an added acetonitrile/methanol solution containing an internal standard and, thereafter, the supernatant was analyzed by LC-MS/MS (Applied Biosystems: API3000). Drug-derived ions were detected by selected reaction monitoring based on electrospray ionization in a positive ion mode. From peak areas in the resulting extracted ion chromatogram, drug concentrations in the homogenate were calculated by the internal standard method.
The internal standard here used was compound 11 disclosed in WO2007/136116.

dose remaining unaltered in the small intestine and its contents ([3]; 1 hour after drug administration): about 75%
Remaining unaltered, cecum/large intestine (including the contents), relative to dose ([3]; 1 hr after dosing): 0.2 ± 0.3 % of dose
Remaining unaltered, small intestine's contents, relative to dose ([3]; 1 hr after dosing): 70.3 ± 6.7 % of dose
Remaining unaltered, small intestine, relative to dose ([3]; 1 hr after dosing): 4.9 ± 0.6 % of dose
Remaining unaltered, total, relative to dose ([3]; 1 hr after dosing): 75.4 ± 6.3 % of dose
dose remaining unaltered in the small intestine and its contents ([3]; 4 hours after drug administration): about 75%
Remaining unaltered, cecum/large intestine (including the contents), relative to dose ([3]; 4 hr after dosing): 33.1 ± 44.5 % of dose
Remaining unaltered, small intestine's contents, relative to dose ([3]; 4 hr after dosing): 69.7 ± 44.9 % of dose
Remaining unaltered, small intestine, relative to dose ([3]; 4 hr after dosing): 6.4 ± 5.3 % of dose
Remaining unaltered, total, relative to dose ([3]; 4 hr after dosing): 109.2 ± 10.7 % of dose
Remaining unaltered, cecum/large intestine (including the contents), relative to dose ([3]; 7 hr after dosing): 84.2 ± 8.8 % of dose
Remaining unaltered, small intestine's contents, relative to dose ([3]; 7 hr after dosing): 1.6 ± 1.2 % of dose
Remaining unaltered, small intestine, relative to dose ([3]; 7 hr after dosing): 0.7 ± 0.3 % of dose
Remaining unaltered, total, relative to dose ([3]; 7 hr after dosing): 86.5 ± 9.2 % of dose
SMILES: COc1cc(C(C)C)c(Cc2ccc(/C=C/C(C)(C)C(=O)NC(C)(C)C(=O)NCCN(C)C)cc2)cc1[C@@H]1O[C@H](CO)[C@@H](O)[C@H](O)[C@H]1O [Compound (I), (1S)-1,5-anhydro-1-[5-(4-{(1E)-4-[(1-{[2-(dimethylamino)ethyl]amino}-2-methyl-1-oxopropan-2-yl)amino]-3,3-dimethyl-4-oxobut-1-en-1-yl}benzyl)-2-methoxy-4-(propan-2-yl)phenyl]-D-glucitol]
wet weight of stools ([1]; stools recovered until 24 hours (FIG. 1)): increased
moisture content of stools ([1]; stools recovered until 24 hours (FIG. 2)): increased
wet weight of stools ([2]; stools recovered until 12 hours (FIG. 3)): increased
moisture content of stools ([2]; stools recovered until 12 hours (FIG. 4)): increased
